“Also recorded” adds a separate entry of the source.
How the values were obtained:
[1] = test system: human renal cell carcinoma cell line RCC4; test: Phospholipid profiling (tandem MS) of soraphen-treated RCC4 cells; type: cell-based; conditions: 100 nm soraphen vs vehicle, 72 h, PC, PE, PI, PS classes
Experimental: Renal cancer cell lines RCC4 VHL (Von Hippel Lindau) positive and negative were cultured in advanced DMEM supplemented with 10% fetal bovine serum, 1% PSG and 0.5 mg/ml G418. Cells were grown at 37° C. in a humidified 5% CO2 incubator. The day after seeding, cells were treated with 100 nm soraphen or vehicle (control) for 72 h.
To assess the impact of fatty acyl chain elongation and of chemical inhibitors of this process, the human renal cell carcinoma cell line RCC4 was treated with soraphen.

[2] = test system: Human breast adenocarcinoma cells MDA-MB-231; test: Phospholipid profiling (tandem MS) of soraphen-treated MDA-MB-231 cells; type: cell-based; conditions: 100 nm soraphen vs vehicle, 72 h, four phospholipid classes
Experimental: Human breast adenocarcinoma cells MDA-MB-231 (obtained from the American Type Culture Collection) were cultured in DMEM-F12 supplemented with 10% fetal bovine serum and were grown at 37° C. in a humidified 5% CO2 incubator. The day after seeding, cells were treated with 100 nm soraphen or vehicle (control) for 72 h.
Lipids were extracted from both soraphen and vehicle treated cells and were analyzed by tandem mass spectrometry.

For `CO[C@H]1CCCC[C@@H](c2ccccc2)OC(=O)[C@@H](C)[C@@]2(O)O[C@H]([C@@H](C)[C@H](O)[C@H]2OC)[C@@H](C)/C=C/[C@H]1OC` [soraphen], the “changes in phospholipid acyl chain composition (soraphen/control ratio)” value [1] was “a marked shift from longer to shorter lipid species; also recorded: a marked inhibition of acyl chain elongation” and the “changes in phospholipid acyl chain composition (soraphen/control ratio)” value [2] was “a marked shift from longer to shorter lipid species; also recorded: a clear decrease in the longer lipid species”.

Reference: patent US9400274B2, “Cancer phospholipidome” (Katholieke Universiteit Leuven, priority 2010, dated 2016)
